The record followed here is ChEMBL document CHEMBL1208700, “Anibamine, a natural product CCR5 antagonist, as a novel lead for the development of anti-prostate cancer agents” (Bioorg Med Chem Lett, 2010).

The structures appear in SMILES notation. The source made the active and inactive calls. The calls are words filed in the database; no cut-off is given here.

For data set [1], the system named is M12. Nature of the data set: Antiproliferative activity against human M12 cells after 72 hrs by WST-1 assay. The format is functional, cell-based. For orientation: Formazan colour is commonly taken as a measure of viable cells.
In another data set the test system is DU-145. The data set can be described thus: Antiproliferative activity against human DU145 cells after 72 hrs by WST-1 assay. Type of data set: functional, cell-based.
For the next data set, the system named is PC-3. Nature of the data set: Antiproliferative activity against human PC3 cells after 72 hrs by WST-1 assay. The format is functional, cell-based.
The nature of data set [2]: Inhibition of human M12 cells invasion at 50 to 500 nM after 16 hrs. Type of data set: functional.
The test system of data set [3] is M12. The data set can be described thus: Inhibition of human M12 cells invasion after 16 hrs. The format is functional, cell-based.
The nature of data set [4]: Inhibition of human M12 cells adhesion at 10 to 100 nM after 24 hrs. Type of data set: functional.
The subject of data set [5] is M12. The data set can be described thus: Reversal of 3D IrECM gel-induced morphological changes in human M12 cells at 500 nM to 1 uM after 5 to 8 days by light microscopic analysis. The format is functional, cell-based.
Data set [6] is described as follows: Reduction of vimentin gene expression in human M12 cells at 1 uM after 8 days by confocal immunofluorescence microscopy. Type of data set: functional, cell-based.
Data set [7] relates to M12. The data set can be described thus: Reversal of disorganized alpha6 integrin in human M12 cells at 1 uM after 8 days by confocal immunofluorescence microscopy. Type of data set: functional, cell-based.
The test system of data set [8] is M12. The data set can be described thus: Reversal of disorganized beta-1 integrin in human M12 cells at 1 uM after 8 days by confocal immunofluorescence microscopy. Type of data set: functional, cell-based.
Data set [9] can be described thus: Toxicity in sheep RBC assessed as hemolysis at 1 uM after 60 mins. Type of data set: cell-based, Ovis aries. As to conditions: erythrocyte, 1 h.
Data set [10] is described as follows: Antitumor activity against human M12 cells xenografted in athymic nude mouse assessed as reduction of tumor size at 0.3 mg/kg, iv administered once every fourth day for 16 days. The format is functional. The arrangement: scale not given: the % may be the effect or the level left. For orientation: A xenograft is tissue or cells of one species grown in another, often human tumour cells in immunodeficient mice.

As for `CCCCCCCC/C=C\c1c(C)c(/C=C\CCCCCCCC)c2[n+](c1C)CCC2.O=C([O-])C(F)(F)F` [ANIBAMINE], the Activity result was “Dose-dependent effect” in the data set on M12 [1]; “Dose-dependent effect” in the data set with DU-145; “Dose-dependent effect” in the data set with PC-3; “Non-toxic” in data set [9]; 50% in [10]. For the same molecule, the “inhibition (INH)” value in [2] is listed as 42%; in data set [4], 26%. Moreover, the inhibition entry in the data set with M12 [3] is “Dose-dependent effect”. Besides, the result (in the data set on M12 [5]; in [6]; in the data set with M12 [7]; in the data set on M12 [8]) was Active.
